# Assay results taken from US9491943B2, “Bioengineering strain for production of novel microorganism-originated fungicides and uses thereof” (SHANGHAI JIAOTONG UNIVERSITY, priority 2011, dated 2016).
# Tested on: rhizoctonia solani
# Assay: Antifungal rate (inhibition of hypha growth) on potato glucose culture medium plates
# Type: cell-based
# Details: 16 mg/L in potato glucose culture medium, 28° C.
smiles,measurement,setting,value
NC(=O)c1cccc2nc3ccccc3nc12 [phenazine-1-carboxamide],antifungal activity (antifungal rate) against rhizoctonia solani,acidity (pH) 4.0,65%
same,antifungal activity (antifungal rate) against rhizoctonia solani,acidity (pH) 5.0,69%
same,antifungal activity (antifungal rate) against rhizoctonia solani,acidity (pH) 6.0,73.6%
same,antifungal activity (antifungal rate) against rhizoctonia solani,acidity (pH) 7.0,80.1%
same,antifungal activity (antifungal rate) against rhizoctonia solani,acidity (pH) 8.0,90%
